{
  "source": "patent US20210300921A1",
  "about": "“EP4 INHIBITORS AND SYNTHESIS THEREOF” (Arrys Therapeutics, Inc., priority 2018, published 2021)",
  "assay_type_in_all_cases": "in vivo, BALB/c mice",
  "key": {"CT-26 tumors": {"system": "CT-26 tumors", "assay": "Immune cell composition of CT-26 tumors by flow cytometry after 7 days of dosing", "conditions": "for percentage of dendritic cells (CD45, CD11c positive) in tumors: FIG. 7b; for regulatory T cells (CD45, CD4, FoxP3, CD25 positive) in tumors: versus vehicle, FIG. 7a; for percentage of activated T cells (CD45, CD3, CD8) by CD25 expression in tumors: FIG. 7c", "protocol": "The immune cell composition of Compound X (the compound as described in Example 15, above) as a single agent and combined with a mouse anti-PD1 antibody was evaluated in the CT-26 mouse colon adenocarcinoma model grown in BALB/c mice. Mice were inoculated subcutaneously in the right flank with 5×10^5 tumor cells. When tumors reached an average size of 85 mm^3 dosing was initiated. The dosing regimens in the 4 separate cohorts comprising 10 mice each are listed as follows:\nAfter dosing animals for 7 days, tumors were resected and used to prepare single cell suspensions. Live cells representing tumor and immune cells were stained with cocktails of antibodies targeting multiple immune cell markers (anti-CD45, anti-CD3, anti-CD4, anti-CD8, anti-CD25, anti-FoxP3, anti-PD-1, anti-CD11c) conjugated to different fluorescent tags. The stained cells were fixed in 4% paraformaldehyde and quantified using a multi-color flow cytometer (Fortessa). The data was analyzed with FloJo software."}, "[1]": {"system": "4T1 mouse breast cancer model", "assay": "Antitumor activity in the 4T1 mouse breast cancer model, additional experiment with anti-PD1 (7 mice per cohort)", "conditions": "FIG. 6", "protocol": "(§1) The antitumor activity of Compound X as a single agent and combined with a mouse anti-PD1 antibody was evaluated in the 4T1 mouse breast cancer model grown in BALB/c mice in an additional experiment. Mice were inoculated subcutaneously in the right flank with 3×10^5 tumor cells. When tumors reached an average size of 97 mm^3 dosing was initiated. The dosing regimens in the 4 separate cohorts comprising 7 mice each are as follows: […]"}, "[2]": {"system": "CT-26 mouse colon adenocarcinoma model", "assay": "Antitumor activity in the CT-26 mouse colon adenocarcinoma model, additional experiment (7 mice per cohort)", "conditions": "FIG. 5", "protocol": "as §1, with “CT-26” for “4T1”, “colon adenocarcinoma” for “breast cancer”, “5×10^5” for “3×10^5”, “91” for “97”"}, "[3]": {"system": "CT-26 mouse colon adenocarcinoma model", "assay": "Antitumor activity in the CT-26 mouse colon adenocarcinoma model, Compound X with or without anti-PD-1 (10 mice per cohort)", "conditions": "for tumor growth kinetics during the treatment period: versus single agent anti-PD-1; for tumor growth kinetics during the period of dosing: versus vehicle", "protocol": "The antitumor activity of Compound X as a single agent and combined with a mouse anti-PD-1 antibody was evaluated in the CT-26 mouse colon adenocarcinoma model grown in BALB/c mice. Mice were inoculated subcutaneously in the right flank with 5×10^5 tumor cells. When tumors reached an average size of 71 mm^3 (6 days after tumor cell inoculation) dosing was initiated. The dosing regimens in the 8 separate cohorts comprising 10 mice each are as follows: […]"}, "[4]": {"system": "4T1 mouse breast cancer model", "assay": "Antitumor activity in the 4T1 mouse breast cancer model, Compound X with or without anti-CTLA4", "conditions": "for tumor growth kinetics during the period of dosing: FIG. 3", "protocol": "The antitumor activity of Compound X (the compound as described in Example 15, above) as a single agent and combined with a mouse anti-CTLA4 antibody was evaluated in the 4T1 mouse breast cancer model grown in BALB/c mice. Mice were inoculated subcutaneously in the right flank with 3×10^5 tumor cells. When tumors reached an average size of 100 mm^3 (7 days after tumor cell inoculation) dosing was initiated."}, "[5]": {"conditions": "single agent: Compound X 15 mg/kg BID x7 days po or anti-PD-1 10 mg/kg Q3D x3 ip"}, "[6]": {"conditions": "Compound X 15 mg/kg BID in combination with anti-CTLA4"}},
  "data": [
    {"smiles": "C[C@H](NC(=O)c1cc(Cl)cnc1Oc1cccc(F)c1)c1ccc(C(=O)O)cc1", "note": "[Compound X]", "values": [
      {"measurement": "percentage of dendritic cells (CD45, CD11c positive) in tumors", "setting": "CT-26 tumors; Compound X 15 mg/kg BID dosed with anti-PD-1 10 mg/kg Q3D", "value": "increased percentage"},
      {"measurement": "regulatory T cells (CD45, CD4, FoxP3, CD25 positive) in tumors", "setting": "CT-26 tumors; combination of Compound X 15 mg/kg BID and anti-PD-1 10 mg/kg Q3D", "value": "significant decrease"},
      {"measurement": "percentage of activated T cells (CD45, CD3, CD8) by CD25 expression in tumors", "setting": "CT-26 tumors; combination of Compound X 15 mg/kg BID with anti-PD-1 10 mg/kg Q3D", "value": "increased percentage"},
      {"measurement": "percentage of activated T cells (CD45, CD3, CD8) by CD25 expression in tumors", "setting": "CT-26 tumors; either agent dosed alone", "value": "did not"},
      {"measurement": "percentage of dendritic cells (CD45, CD11c positive) in tumors", "setting": "CT-26 tumors; [5]", "value": "increased percentage"},
      {"measurement": "regulatory T cells (CD45, CD4, FoxP3, CD25 positive) in tumors", "setting": "CT-26 tumors; [5]", "value": "significant decrease"},
      {"measurement": "tumor growth kinetics during the period of dosing", "setting": "[1]; Compound X 15 mg/kg BID combined with anti-PD1 10 mg/kg BIW ip", "value": "lower than mice treated with either single agent"},
      {"measurement": "tumor growth kinetics during the period of dosing", "setting": "[1]; Compound X 15 mg/kg BID po, single agent", "value": "less than that of the vehicle group and anti-PD1 when dosed alone"},
      {"measurement": "tumor growth kinetics during the period of dosing", "setting": "[2]; Compound X 15 mg/kg BID combined with anti-PD1 10 mg/kg BIW ip, versus single agents", "value": "lower than mice treated with either single agent"},
      {"measurement": "tumor growth kinetics during the period of dosing", "setting": "[2]; single agent: Compound X 15 mg/kg BID po or anti-PD1 10 mg/kg BIW ip, versus vehicle", "value": "less than that of the vehicle group"},
      {"measurement": "mice still alive 99 days after tumor inoculation", "setting": "[3]; Compound X 15 mg/kg BID in combination with anti-PD-1", "value": "5 out of 10"},
      {"measurement": "growth kinetics after treatment was discontinued", "setting": "[3]; Compound X 15 mg/kg BID in combination with anti-PD-1, FIG. 1", "value": "decreased growth kinetics relative to anti-PD-1"},
      {"measurement": "survival after treatment was discontinued", "setting": "[3]; Compound X 15 mg/kg BID in combination with anti-PD-1, FIG. 2", "value": "improved survival"},
      {"measurement": "tumor free mice 99 days after tumor inoculation", "setting": "[3]; Compound X 15 mg/kg BID in combination with anti-PD-1, of 10 mice", "value": 4},
      {"measurement": "tumor growth kinetics during the treatment period", "setting": "[3]; Compound X 15 mg/kg BID p.o. combined with anti-PD-1 10 mg/kg i.p.", "value": "not notably different mice treated with single agent anti-PD-1"},
      {"measurement": "tumor growth kinetics during the period of dosing", "setting": "[3]; Compound X 15 mg/kg BID p.o., single agent, FIG. 1", "value": "not notably different from the vehicle treated mice"},
      {"measurement": "tumor growth kinetics during the treatment period", "setting": "[3]; Compound X 15 mg/kg QD p.o. combined with anti-PD-1 10 mg/kg i.p.", "value": "not notably different mice treated with single agent anti-PD-1"},
      {"measurement": "tumor growth kinetics during the period of dosing", "setting": "[3]; Compound X 15 mg/kg QD p.o., single agent, FIG. 1", "value": "not notably different from the vehicle treated mice"},
      {"measurement": "mice still alive and tumor free 99 days after tumor inoculation", "setting": "[3]; single agent", "value": "1 out of 10"},
      {"measurement": "mice still alive 47 days after tumor inoculation", "setting": "[4]; [6]", "value": "7 of 10"},
      {"measurement": "mice still alive at the end of the study 55 days after tumor inoculation", "setting": "[4]; [6]", "value": "3 of 10"},
      {"measurement": "survival rate after treatment was discontinued", "setting": "[4]; Compound X 15 mg/kg BID in combination with anti-CTLA4, FIG. 4", "value": "improved survival rate relative to either single agent alone"},
      {"measurement": "tumor growth kinetics during the period of dosing", "setting": "[4]; Compound X and anti-CTLA4 combined, versus either agent alone", "value": "decreased relative to either agent when dosed alone"},
      {"measurement": "mice alive 47 days after tumor inoculation", "setting": "[4]; single agent alone", "value": "none"},
      {"measurement": "tumor growth kinetics during the period of dosing", "setting": "[4]; single agent: Compound X 15 mg/kg BID or anti-CTLA4, versus vehicle", "value": "decreased relative to the vehicle treated mice"}
    ]}
  ]
}
